Measurements reported in patent US12478624B2, “Heterocyclic derivatives, pharmaceutical compositions and their use in the treatment or amelioration of cancer” (Tolremo Therapeutics AG, priority 2019, dated 2025).

Key:
[1] = tested on: A375 cells; assay: Assay 1: A375 cells treated with S1152, S1008 and compound, immunofluorescence (sc-365823) signal; assay type: cell-based; conditions: 1 μM S1152 + 0.5 μM S1008, one day
Summary of the method: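 A375 cells treated one day with 1 μM S1152, 0.5 μM S1008 and compound dose ranges in DMEM/10% FCS, then fixed, permeabilised and immunostained. Green signal normalised to nuclear counterstain (ethidium-type or DAPI), log ratio fitted by four-parameter regression for EC50.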

[2] = molecular target: T1, CBP Bromodomain (Homo sapiens, UniProt Q92793); assay: Assay 3: CBP bromodomain binding assay (TR-FRET)
T1 construct: purchased Cayman chemicals 600850
T1 sequence (Q92793 1085-1192 limits assumed): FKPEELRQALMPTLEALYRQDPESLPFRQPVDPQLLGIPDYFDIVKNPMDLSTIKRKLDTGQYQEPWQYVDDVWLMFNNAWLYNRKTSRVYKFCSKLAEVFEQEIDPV
Protocol: Assay 3 CBP Bromodomain Binding Assay (TR-FRET)
Compounds solutions of 10 mM in DMSO were pre-diluted in DSMO to 25× stock solutions in DMSO. These were then diluted down to 4× in assay buffer. A dilution series in assay buffer was performed keeping the DMSO concentration stable. 5 μl compound in assay buffer was transferred into the assay plate (provided by assay kit) and the TR-FRET assay Cayman chemicals; 600850) was performed using the manufactor's instructions. After 1 hour incubation at room temperature in the darks, assay plates were read in a Tecan M1000 plate reader or a Tecan Spaks reader using the TR-FRET mode (top read; excitation 340 nm bandwidth […]; emission 620 nm bandwidth […]; gain optimal determined for the first well, number of flashes: 5; flash frequency 100 Hz; integration time: 500 μs, lag time: 100 μs, room temperature). The TR-FRET ratio was calculated by deviding 670 nm emission by 620 nm emission. Values were log transformed and non-linear regression with variable slope (4 parameters) was used to fit values to a dose-response curve to evaluate EC50 values.

[3] = tested on: OPM-2; assay: Assay 2: multiple myeloma cellular efficacy, PrestoBlue cell proliferation/survival; assay type: cell-based; conditions: Homo sapiens, 96 h, OPM-2 cells, 4 days
Summary of the method: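 Cells seeded at 10000/well and exposed to a compound dose range or vehicle for 4 days, then stained with PrestoBlue for 2 h at 37 °C. Fluorescence was background-subtracted and normalized to vehicle; EC50 came from a four-parameter variable-slope fit against log concentration.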

| EC50 [1] [nM] | EC50 [2] [nM] | SMILES | EC50 [3] [nM] |
| --- | --- | --- | --- |
| 200 to 1000 | 200 to 1000 | CC(=O)N1C[C@H](c2nc(Nc3ccncc3)cc(-c3cccnc3)n2)CC[C@@H]1C (racemic) [Compound 00101, (+/−)-c/s-1-(2-methyl-5-(4-(pyridin-3-yl)-6-(pyridin-4-ylamino)pyrimidin-2-yl)piperidin-1-yl)ethan-1-one] |  |
| 1000 to 10000 | 200 to 1000 | CC(=O)N1C[C@H](c2nc(Nc3ccc4nccn4c3)cc(-c3cccnc3)n2)CC[C@@H]1C [Compound 00013, 1-((2S,5R)-5-(4-(imidazo[1,2-a]pyridin-6-ylamino)-6-(pyridin-3-yl)pyrimidin-2-yl)-2-methylpiperidin-1-yl)ethan-1-one] |  |
| < 200 | 200 to 1000 | CC(=O)N1C[C@H](c2nc(Nc3ccc4[nH]ncc4c3)cc(-c3cccnc3)n2)CC[C@@H]1C [Compound 00030, 1-((2S,5R)-5-(4-((1H-indazol-5-yl)amino)-6-(pyridin-3-yl)pyrimidin-2-yl)-2-methylpiperidin-1-yl)ethan-1-one] |  |
| 200 to 1000 | 200 to 1000 | CC(=O)N1C[C@H](c2nc(Nc3cc(F)cc(C(=O)N(C)C)c3)cc(-c3cccnc3)n2)CC[C@@H]1C [Compound 00038, 3-((2-((3R,6S)-1-acetyl-6-methylpiperidin-3-yl)-6-(pyridin3-yl)pyrimidin-4-yl)amino)-5-fluoro-N,N-dimethylbenzamide] |  |
| < 200 | 200 to 1000 | CC(=O)N1C[C@H](c2nc(Nc3cccc4[nH]ncc34)cc(-c3cccnc3)n2)CC[C@@H]1C [Compound 00042, 1-((2S,5R)-5-(4-((1H-indazol-4-yl)amino)-6-(pyridin-3-yl)pyrimidin-2-yl)-2-methylpiperidin-1-yl)ethan-1-one] |  |
| < 200 |  | CC(=O)N1C[C@H](c2nc(Nc3ccnc(C(C)(F)F)c3)cc(-c3cccnc3)n2)CC[C@@H]1C [Compound 00146, 1-((2S,5R)-5-(4-((2-(1,1-difluoroethyl)pyridin-4-yl)amino)-6-(pyridin-3-yl)pyrimidin-2-yl)-2-methylpiperidin-1-yl)ethan-1-one] | 200 to 1000 |
| < 200 |  | CC(=O)N1C[C@H](c2nc(Nc3ccc4oc(C)nc4c3)cc(-c3cccnc3)n2)CC[C@@H]1C [Compound 00147, 1-((2S,5R)-2-methyl-5-(4-((2-methylbenzo[d]oxazol-5-yl)amino)-6-(pyridin-3-yl)pyrimidin-2-yl)piperidin-1-yl)ethan-1-one] | < 200 |
| < 200 |  | CC(=O)Nc1cccc(Nc2cc(-c3cccnc3)nc([C@@H]3CC[C@H](C)N(C(C)=O)C3)n2)n1 [Compound 00148, N-(6-((2-((3R,6S)-1-acetyl-6-methylpiperidin-3-yl)-6-(pyridin-3-yl)pyrimidin-4-yl)amino)pyridin-2-yl)acetamide] | < 200 |

Second part, the compound before the results:

| SMILES | EC50 [1] [nM] | EC50 [2] [nM] | EC50 [3] [nM] |
| --- | --- | --- | --- |
| CC(=O)N1C[C@H](c2nc(Nc3cncc(C)c3)cc(-c3cnccn3)n2)CC[C@@H]1C [Compound 00001, 1-((2S,5R)-2-methyl-5-(4-((5-methylpyridin-3-yl)amino)-6-(pyrazin-2-yl)pyrimidin-2-yl)piperidin-1-yl)ethan-1-one] | < 200 | < 200 |  |
| CC(=O)N1C[C@H](c2nc(Nc3cc(F)c4cn[nH]c4c3)cc(-c3cccnc3)n2)CC[C@@H]1C [Compound 00040, 1-((2S,5R)-5-(4-((4-fluoro-1H-indazol-6-yl)amino)-6-(pyridin-3-yl)pyrimidin-2-yl)-2-methylpiperidin-1-yl)ethan-1-one] | < 200 | < 200 |  |
| CC(=O)N1C[C@H](c2nc(Nc3cc(F)cc(-c4cnn(C)c4)c3)cc(-c3cccnc3)n2)CC[C@@H]1C [Compound 00043, 1-((2S,5R)-5-(4-((3-fluoro-5-(1-methyl-1H-pyrazol-4-yl)phenyl)amino)-6-(pyridin-3-yl)pyrimidin-2-yl)-2-methylpiperidin-1-yl)ethan-1-one] | < 200 | < 200 |  |
| CC(=O)N1C[C@H](c2nc(Nc3cc(F)cc(-c4cnoc4)c3)cc(-c3cccnc3)n2)CC[C@@H]1C [Compound 00046, 1-((2S,5R)-5-(4-((3-fluoro-5-(isoxazol-4-yl)phenyl)amino)-6-(pyridin-3-yl)pyrimidin-2-yl)-2-methylpiperidin-1-yl)ethan-1-one] | < 200 | < 200 |  |
| CC(=O)N1C[C@H](c2nc(Nc3ccnc(C)c3)cc(-c3cnccn3)n2)CC[C@@H]1C [Compound 00126, 1-((2S,5R)-2-methyl-5-(4-((2-methylpyridin-4-yl)amino)-6-(pyrazin-2-yl)pyrimidin-2-yl)piperidin-1-yl)ethan-1-one] |  | < 200 |  |
| COc1cc(Nc2cc(-c3cnccn3)nc([C@@H]3CC[C@H](C)N(C(C)=O)C3)n2)cc(C)n1 [Compound 00150, 1-((2S,5R)-5-(4-((2-methoxy-6-methylpyridin-4-yl)amino)-6-(pyrazin-2-yl)pyrimidin-2-yl)-2-methylpiperidin-1-yl)ethan-1-one] | < 200 |  | < 200 |
| CC(=O)N1C[C@H](c2nc(Nc3cc(C)ncn3)cc(-c3cnccn3)n2)CC[C@@H]1C [Compound 00151, 1-((2S,5R)-2-methyl-5-(4-((6-methylpyrimidin-4-yl)amino)-6-(pyrazin-2-yl)pyrimidin-2-yl)piperidin-1-yl)ethan-1-one] | 200 to 1000 |  | 200 to 1000 |
| CC(=O)N1C[C@H](c2nc(Nc3cc(C)nc(-c4cnn(C)c4)c3)cc(-c3cnccn3)n2)CC[C@@H]1C [Compound 00154, 1-((2S,5R)-2-methyl-5-(4-((2-methyl-6-(1-methyl-1H-pyrazol-4-yl)pyridin-4-yl)amino)-6-(pyrazin2-yl)pyrimidin-2-yl)piperidin-1-yl)ethan-1-one] | < 200 |  | 200 to 1000 |
| CC(=O)N1C[C@H](c2nc(Nc3ccnc(OC(C)C)c3)cc(-c3cnccn3)n2)CC[C@@H]1C [Compound 00155, 1-((2S,5R)-5-(4-((2-isopropoxypyridin-4-yl)amino)-6-(pyrazin-2-yl)pyrimidin-2-yl)-2-methylpiperidin-1-yl)ethan-1-one] | 200 to 1000 |  | 200 to 1000 |
| CC(=O)N1C[C@H](c2nc(Nc3cc(F)ccn3)cc(-c3cnccn3)n2)CC[C@@H]1C [Compound 00156, 1-((2S,5R)-5-(4-((4-fluoropyridin-2-yl)amino)-6-(pyrazin2-yl)pyrimidin-2-yl)-2-methylpiperidin-1-yl)ethan-1-one] | 200 to 1000 |  | 200 to 1000 |
| CC(=O)N1C[C@H](c2nc(Nc3ccnc(-c4cnn(C5CC5)c4)c3)cc(-c3cccnc3)n2)CC[C@@H]1C [Compound 00157, 1-((2S,5R)-5-(4-((2-(1-cyclopropyl-1H-pyrazol-4-yl)pyridin-4-yl)amino)-6-(pyridin-3-yl)pyrimidin-2-yl)-2-methylpiperidin-1-yl)ethan-1-one] | < 200 |  | < 200 |
| CCn1cc(-c2cc(Nc3cc(-c4cccnc4)nc([C@@H]4CC[C@H](C)N(C(C)=O)C4)n3)ccn2)cn1 [Compound 00158, 1-((2S-5R)-5-(4-((2-(1-ethyl-1H-pyrazol-4-yl)pyridin-4-yl)amino)-6-(pyridin-3-yl)pyrimidin-2-yl)-2-methylpiperidin-1-yl)ethan-1-one] | < 200 |  | < 200 |
| CC(=O)N1C[C@H](c2nc(Nc3ccnc(-c4cnn(C5CCOCC5)c4)c3)cc(-c3cccnc3)n2)CC[C@@H]1C [Compound 00159, 1-((2S-5R)-2-methyl-5-(4-(pyridin-3-yl)-6-((2-(1-(tetrahydro-2H-pyran-4-yl)-1H-pyrazol-4-yl)pyridin-4-yl)amino)pyrimidin-2-yl)piperidin-1-yl)ethan-1-one] | < 200 |  | < 200 |
| COCCn1cc(-c2cc(Nc3cc(-c4cccnc4)nc([C@@H]4CC[C@H](C)N(C(C)=O)C4)n3)ccn2)cn1 [Compound 00160, 1-((2S,5R)-5-(4-((2-(1-(2-methoxyethyl)-1H-pyrazol-4-yl)pyridin-4-yl)amino)-6-(pyridin-3-yl)pyrimidin-2-yl)-2-methylpiperidin-1-yl)ethan-1-one] | 200 to 1000 |  | 200 to 1000 |
| CC(=O)N1C[C@H](c2nc(Nc3cc(C)nc(-c4cnn(C)c4)c3)cc(-c3cccnc3)n2)CC[C@@H]1C [Compound 00161, 1-((2S,5R)-2-methyl-5-(4-((2-methyl-6-(1-methyl-1H-pyrazol-4-yl)pyridin-4-yl)amino)-6-(pyridin-3-yl)pyrimidin-2-yl)piperidin-1-yl)ethan-1-one] | < 200 |  | < 200 |
| CC(=O)N1C[C@H](c2nc(Nc3ccccc3)cc(-n3cnc(C)c3)n2)CC[C@@H]1C [Compound 00163, 1-((2S,5R)-2-methyl-5-(4-(4-methyl-1H-imidazol-1-yl)-6-(phenylamino)pyrimidin-2-yl)piperidin-1-yl)ethan-1-one] | 1000 to 10000 | 1000 to 10000 |  |
| CC(=O)N1C[C@H](c2nc(-c3cnccn3)cc(N(C)c3ccnc(C)c3)n2)CC[C@@H]1C [Compound 00167, 1-((2S,5R)-2-methyl-5-(4-(methyl(2-methylpyridin-4-yl)amino)-6-(pyrazin-2-yl)pyrimidin-2-yl)piperidin-1-yl)ethan-1-one] | 200 to 1000 |  | 1000 to 10000 |
